Laboratory results from patent publication US20240309065A1, “SHORT APOC-II MIMETIC PEPTIDES AND METHODS OF USE” (The United States of America, as represented by the …, priority 2021, published 2024).
Where a SMILES comes first, the peptide text is derived from it. Bridges are numbered along the chain shown (N, C = ends). Where no end group is shown, it is not given here. [ ]: non-standard residue; d: D form. The star is where a group is joined. R8 = C=CCCCCCC[C@@](C)(N)C(=O)O; S5 = C=CCCC[C@](C)(N)C(=O)O; dNle = CCCC[C@@H](N)C(=O)O; Nle = CCCC[C@H](N)C(=O)O; Octanoyl = CCCCCCCC(=O)*; Sar = CNCC(=O)O

Assays:
[1] = biological target: T1, LPL from bovine milk (Bos taurus, UniProt P11151); experiment: LPL activation assay (generation of NEFA); type: biochemical; conditions: 0-10 μM peptide, 7.45 nM LPL, apoC-II deficient plasma, 37° C. for 1 hour, NEFA measured
T1 construct: 7.45 nM of LPL from bovine milk (Sigma-Aldrich); purchased Sigma-Aldrich; host or cells: bovine milk
T1 sequence (P11151 29-478): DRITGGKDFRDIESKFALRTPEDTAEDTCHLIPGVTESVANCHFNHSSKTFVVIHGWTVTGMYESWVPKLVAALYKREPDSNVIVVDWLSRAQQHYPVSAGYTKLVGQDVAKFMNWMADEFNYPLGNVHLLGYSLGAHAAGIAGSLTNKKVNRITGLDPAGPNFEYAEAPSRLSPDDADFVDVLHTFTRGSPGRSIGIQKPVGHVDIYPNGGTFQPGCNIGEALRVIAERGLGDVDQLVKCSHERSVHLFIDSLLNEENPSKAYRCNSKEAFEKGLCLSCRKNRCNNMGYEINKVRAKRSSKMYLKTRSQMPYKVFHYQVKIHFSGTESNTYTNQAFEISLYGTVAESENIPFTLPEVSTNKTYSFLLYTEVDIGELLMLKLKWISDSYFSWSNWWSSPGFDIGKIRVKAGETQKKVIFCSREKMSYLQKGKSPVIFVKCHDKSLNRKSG
Procedure: (§1) LPL activity was determined by measuring the generation of NEFA. In a 96-well plate, 0-10 μM of an apoC-II mimetic peptide, 7.45 nM of LPL from bovine milk (Sigma-Aldrich), apoC-II deficient ethylenediaminetetraacetic acid (EDTA)-plasma (diluted with PBS to a final TG concentration of 3 mg/dL), 10 IU/ml heparin, 1% bovine serum albumin (BSA) (ICN Biomedicals), and PBS (Life Technologies) were combined in a final reaction volume of 50 μL, pre-incubated on ice for 30 minutes, and incubated at 37° C. for 1 hour. NEFA were measured with a coupled enzyme reaction (FUJIFILM Wako Diagnostics), in a SpectraMax Plus 384 Microplate Reader.

[2] = test system: apoC-II knockout mice; experiment: Peptide activity in vivo in apoC-II knockout mice; conditions: single intraperitoneal injection 5 μmole/kg, blood at 1, 3, 6 and 24 hours; for triglycerides: compared to control
Procedure: A study was performed comparing the effect of D6-PV (SEQ ID NO: 15) and SPH2S (SEQ ID NO: 5) peptides in apoC-II knockout mice. Mice were given a single intraperitoneal injection of the peptide (5 μmole/kg) and blood was collected at 1 hour, 3 hours, 6 hours and 24 hours after injection. Triglycerides, total cholesterol, and non-esterified fatty acids (NEFA) were measured.

[3] = DMPC vesicle solubilization assay; conditions: 0.5 mM peptides, DMPC vesicles 0.5 mg/mL in PBS pH 7.4, absorbance at 660 nm for 1 hour at 24° C.
Procedure: Tested peptides were able to solubilize DPMC vesicles (FIG. 15). […] PBS as a negative control or 1% Triton as a positive control or 0.5 mM peptides were added to homogenous DMPC (Avanti 850345C) vesicles (0.5 mg/mL) in PBS, pH 7.4. In vitro turbidity change was monitored by following the absorbance at 660 nm for 1 hour at 24° C. Absorbance over time was plotted and the areas under the curve (AOC) were calculated.

[4] = biological target: T2, Pepsin A (Sus scrofa, UniProt P00791); experiment: LPL activation ability following pepsin treatment; type: in vitro ADME; conditions: 1 mg/ml Pepsin A, pH 1.92, 1 hour at 37° C.; final concentration 10 µM of peptides
T2 construct: purchased Sigma Aldrich P6887-1G
T2 sequence (P00791 60-385): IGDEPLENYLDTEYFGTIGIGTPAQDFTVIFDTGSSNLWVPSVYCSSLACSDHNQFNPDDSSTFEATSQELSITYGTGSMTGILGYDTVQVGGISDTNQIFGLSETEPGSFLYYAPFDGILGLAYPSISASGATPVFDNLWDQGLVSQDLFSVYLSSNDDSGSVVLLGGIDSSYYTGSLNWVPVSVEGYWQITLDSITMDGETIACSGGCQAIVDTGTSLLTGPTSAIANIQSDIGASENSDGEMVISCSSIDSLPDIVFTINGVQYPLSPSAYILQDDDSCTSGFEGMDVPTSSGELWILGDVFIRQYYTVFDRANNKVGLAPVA
Procedure: as §1
Peptide resistance to proteolysis was also tested. Peptides at 0.1 mM concentration were incubated at 37° C. in 20 mM ammonium bicarbonate buffer at pH 8.2 with 10 μg/ml trypsin or […] Proteinase K. The amount of intact peptide was monitored over 24-hour time period by MALDI-TOF using internal standards (Bombesin, ACTH (1-17), ACTH (18-39), and Insulin) to quantify the relative amount of peptide in each sample. As shown in FIGS. 16A-16D, the tested peptides had varying degrees of resistance to trypsin and proteinase K. In addition, peptides were tested for LPL activation ability following pepsin treatment. Peptides (1 mM stock) were prepared in 5 mM TRIS, pH 8.2. […] In vitro generated NEFA were measured by the colorimetric assay.

a(nle)(R8)TYTGIF(S5)DQVLSVLk(Sarcosine)ee ([dA][dNle][R8]TYTGIF[S5]DQVLSVL[dK][Sar][dE][dE]; staple 3-10) [SEQ ID NO: 36]
efficacy for activation of LPL [1]: decreased LPL activation abilities

Octanoic -A(Nle)(R8)TYTGIF(S5)DQVLSVLK(Sarcosine)ee [SEQ ID NO: 37]
efficacy for activation of LPL [1]: did not affect LPL activation

STAAM(R8)TYTGIF(S5)DQVLSVLKGEE (STAAM[R8]TYTGIF[S5]DQVLSVLKGEE; staple 6-13) [SEQ ID NO: 5]
non-esterified fatty acids (NEFA) [2]: more effective than D6-PV | total cholesterol [2]: more effective than D6-PV at decreasing total cholesterol | triglycerides [2]: decreased triglycerides to a similar extent | efficacy for activation of LPL [1]: increased efficacy

a(nle)(R8)TYTGIF(S5)DQVLSVLK(Sarcosine)ee ([dA][dNle][R8]TYTGIF[S5]DQVLSVLK[Sar][dE][dE]; staple 3-10) [SEQ ID NO: 35]
efficacy for activation of LPL [1]: decreased LPL activation abilities

EK(R8)RDLYSK(S5)TAAFSTYTFIFTDQVLSVLKGEE (EK[R8]RDLYSK[S5]TAAFSTYTFIFTDQVLSVLKGEE; staple 3-10) [SEQ ID NO: 26]
efficacy for activation of LPL [1]: did not affect peptide efficacy

AMSTYTGIFTDQVLSVLKGEE [SEQ ID NO: 14, truncated ApoC-II peptide]
solubilization of DMPC vesicles [3]: did not

EK(R8)RDLYSK(S5)TAAFSTYFGIFTDQVLSVLKGEE (EK[R8]RDLYSK[S5]TAAFSTYFGIFTDQVLSVLKGEE; staple 3-10) [SEQ ID NO: 25]
efficacy for activation of LPL [1]: did reduce the efficacy

DYLKEVFEKLRDLYEKFTPAVSTYTGIFTDQVLSVLKGEE [SEQ ID NO: 15, control D6-PV peptide, reference compound]
triglycerides [2]: decreased triglycerides to a similar extent

CCCC[C@H](NC(=O)[C@H](C)NC(C)=O)C(=O)N[C@]1(C)CCCCCCC=CCCC[C@@](C)(C(=O)N[C@@H](CC(=O)O)C(=O)N[C@@H](CCC(N)=O)C(=O)N[C@H](C(=O)N[C@@H](CC(C)C)C(=O)N[C@@H](CO)C(=O)N[C@H](C(=O)N[C@@H](CC(C)C)C(=O)N[C@@H](CCCCN)C(=O)N(C)CC(=O)N[C@H](CCC(=O)O)C(=O)N[C@H](CCC(=O)O)C(=O)O)C(C)C)C(C)C)NC(=O)[C@H](Cc2ccccc2)NC(=O)[C@H]([C@@H](C)CC)NC(=O)CNC(=O)[C@H]([C@@H](C)O)NC(=O)[C@H](Cc2ccc(O)cc2)NC(=O)[C@H]([C@@H](C)O)NC1=O [SEQ ID NO: 34, Ac-A(Nle)(R8)TYTGIF(S5)DQVLSVLK(Sarcosine)ee] (Ac-A[Nle][R8]TYTGIF[S5]DQVLSVLK[Sar][dE][dE]-OH; staple 3-10; C-terminus assumed)
LPL activation after pepsin treatment [4]: showed resistance to pepsin treatment | efficacy for activation of LPL [1]: did not affect LPL activation

CCCC[C@H](NC(=O)[C@H](C)N)C(=O)N[C@]1(C)CCCCCCC=CCCCC2(CCCC=CCCCCCC[C@@](C)(C(=O)N[C@@H](CCCCN)C(=O)N(C)CC(=O)N[C@H](CCC(=O)O)C(=O)N[C@H](CCC(=O)O)C(=O)O)NC(=O)[C@H](C(C)C)NC(=O)[C@H](CO)NC(=O)[C@H](CC(C)C)NC(=O)[C@H](C(C)C)NC(=O)[C@H](CCC(N)=O)NC(=O)[C@H](CC(=O)O)NC2=O)NC(=O)[C@H](Cc2ccccc2)NC(=O)[C@H]([C@@H](C)CC)NC(=O)CNC(=O)[C@H]([C@@H](C)O)NC(=O)[C@H](Cc2ccc(O)cc2)NC(=O)[C@H]([C@@H](C)O)NC1=O (stereo partly drawn) [SEQ ID NO: 18, A(Nle)(R8)TYTGIF(B5)DQVLSV(S8)K(Sarcosine)ee-COOH]
LPL activation after pepsin treatment [4]: showed resistance to pepsin treatment

Octanoic-(R8)TYTGIF(S5)DQVLSVLK(Sarcosine)eeee (Octanoyl-[R8]TYTGIF[S5]DQVLSVLK[Sar][dE][dE][dE][dE]; staple 1-8) [SEQ ID NO: 39]
efficacy for activation of LPL [1]: decreased peptide activity
